Measurements from patent US20110144014A1, “CYTOKINE RECEPTOR MODULATORS AND USES THEREOF” (CENTRE HOSPITALIER UNIVERSITAIRE SAINTE-JUSTINE, priority 2005, published 2011).

How the values were obtained:
IL-1R/IL-1RacP = test: IL-1-induced PGE2 synthesis in endothelial cells; format: cell-based, porcine
Description: Efficiencies and inhibitory activities of the mutated peptides were determined by measuring the inhibition of IL-1-induced PGE2 synthesis. […] All peptides were tested at concentration 10^−6M.
The arginine of API-101.10 (SEQ ID NO: 10) was replaced by citrulline—to change from a guanidine to a urea group near the N-terminal. Other mutations (e.g. E to Q in API-101.102 and API-101.103) and a truncated peptide at the C-terminal (API-101.108) were also performed to improve the potency and the efficacy of the peptides. Measurement of PGE2 was performed with piglet brain microvessel endothelial cells and WI-38 human fibroblasts. Some of the mutations were advantageous and gave major increases in potency.
IL-1-induced PGE2 synthesis assay on endothelial cells was used as a screening assay for the peptidomimetics.

IL-1R = target: T1, IL-1R (Homo sapiens, UniProt P14778); test: IL-1R antagonist activity, structure vs. activity text, assay not stated
T1 sequence (P14778 18-569): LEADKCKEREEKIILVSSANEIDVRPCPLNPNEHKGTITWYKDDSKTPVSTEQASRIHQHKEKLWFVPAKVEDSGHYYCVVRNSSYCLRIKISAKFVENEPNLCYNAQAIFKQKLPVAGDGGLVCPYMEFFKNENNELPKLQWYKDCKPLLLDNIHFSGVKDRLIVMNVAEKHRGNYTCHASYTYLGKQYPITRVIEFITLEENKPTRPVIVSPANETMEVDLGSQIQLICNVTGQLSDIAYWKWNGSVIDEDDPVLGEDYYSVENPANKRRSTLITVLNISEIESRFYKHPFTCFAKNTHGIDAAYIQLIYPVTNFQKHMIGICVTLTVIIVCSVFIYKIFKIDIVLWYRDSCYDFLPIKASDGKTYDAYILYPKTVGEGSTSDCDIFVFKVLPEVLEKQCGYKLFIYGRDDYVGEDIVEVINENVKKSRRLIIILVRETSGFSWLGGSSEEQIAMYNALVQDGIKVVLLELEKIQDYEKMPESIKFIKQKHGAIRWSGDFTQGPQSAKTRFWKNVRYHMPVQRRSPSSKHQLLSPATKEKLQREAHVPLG
T1 sequence (Q9NPH3 21-570 partner): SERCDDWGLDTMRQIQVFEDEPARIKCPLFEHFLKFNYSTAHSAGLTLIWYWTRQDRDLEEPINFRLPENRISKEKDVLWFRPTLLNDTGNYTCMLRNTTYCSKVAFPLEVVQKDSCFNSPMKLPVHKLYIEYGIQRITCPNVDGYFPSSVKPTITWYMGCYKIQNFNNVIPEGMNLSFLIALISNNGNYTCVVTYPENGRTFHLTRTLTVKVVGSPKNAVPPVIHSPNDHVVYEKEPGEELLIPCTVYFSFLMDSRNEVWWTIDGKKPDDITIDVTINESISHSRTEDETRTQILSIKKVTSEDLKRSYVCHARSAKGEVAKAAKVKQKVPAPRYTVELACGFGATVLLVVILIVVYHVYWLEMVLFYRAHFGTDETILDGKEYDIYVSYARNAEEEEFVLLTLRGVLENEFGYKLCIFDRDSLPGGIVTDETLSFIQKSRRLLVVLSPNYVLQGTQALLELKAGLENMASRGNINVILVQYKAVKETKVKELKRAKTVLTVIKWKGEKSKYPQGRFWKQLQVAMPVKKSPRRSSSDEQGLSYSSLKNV

IC50 (IL-1R): 0.01 nM
Structure (SMILES): CC(C)C[C@@H](NC(=O)[C@@H](CCC(=O)O)NC(=O)[C@H]1CC[C@H]2CC[C@@H](NC(=O)[C@@H](Cc3ccc(O)cc3)NC(=O)[C@H](N)CCCNC(=N)N)C(=O)N21)C(=O)N[C@H](C)C(N)=O [API-101.110, RY(I^2aa)ELA]
efficacy relative to API-101.107 (IL-1R/IL-1RacP): twice the efficacy
potency relative to API-101.107 (IL-1R/IL-1RacP): 10 fold
